Data as given in ChEMBL document CHEMBL5543103, “Toward a Template for Synthetic Actin-Targeting Macrolide Analogues That Inhibit Cancer Cell Invasiveness” (J Med Chem, 2024).
pIC50: −log10 of the molar value. Active and inactive are the calls of the source. The rule behind the calls is not given here.

How the values were obtained:
[1] = species: Homo sapiens; assay: Induction of F-actin depolymerization (unknown origin) at 10 uM measured for 900 sec in presence of ATP by fluorescence spectrophotometer method relative to MycB
[2] = species: Oryctolagus cuniculus; assay: (§1) Inhibition of rabbit skeletal muscle G-actin polymerization at 0.5 uM preincubated for 50 sec followed by ATP addition and measured for 600 sec by fluorescence spectrophotometer method relative to control; details: time 650.0 sec
[3] = tested on: L1210; assay: Cytotoxicity against mouse L1210 cells; assay type: functional, cell-based
[4] = tested on: A549; assay: Inhibition of cell invasion in human A549 cells assessed as decrease in wound density at 0.1 uM after 50 hrs by IncuCyte live-cell imaging analysis; assay type: functional, cell-based
[5] = tested on: Cell membrane; assay: Disruption of membrane projections in human SK-OV-3 cells at 0.1 uM; assay type: cell membranes
[6] = tested on: Cell membrane; assay: Disruption of membrane in human SKOV3 cells assessed as F-actin aggregates formation at 0.1 uM; assay type: cell membranes; details: SK-OV-3
[7] = tested on: B16; assay: Cytotoxicity against mouse B16 cells; assay type: functional, cell-based
[8] = Partition coefficient, logP of compound; assay type: physicochemical; details: octanol/water
[9] = as §1; set-up: species or system Oryctolagus cuniculus
[10] = tested on: A549; assay: Inhibition of cell invasion in human A549 cells assessed as decrease in wound density at 10 uM after 50 hrs by IncuCyte live-cell imaging analysis; assay type: functional, cell-based
[11] = tested on: KB; assay: Cytotoxicity against human KB cells; assay type: functional, cell-based
[12] = tested on: Cell membrane; assay: Disruption of membrane projections in human SK-OV-3 cells at 1 uM; assay type: cell membranes
[13] = tested on: Cell membrane; assay: Disruption of membrane in human SK-OV-3 cells assessed as F-actin aggregates formation at 1 uM; assay type: cell membranes

Structure (SMILES)	Activity [1]	inhibition [2]	further results
CCC(=O)O[C@@H](C[C@H](OC)[C@@H](C)CC[C@@H](OC(=O)C(C)C)[C@H](C)[C@H](OC)[C@H](C)/C=C/N1CCCC1=O)C(C)C	26%	29%	–
CO[C@H]([C@H](C)/C=C/N(C)C=O)[C@@H](C)C(=O)CC[C@H](C)[C@H](C[C@@H]1OC(=O)C[C@@H](OC(N)=O)C[C@H](C)C[C@H](O)[C@H](C)[C@@H](OC)c2coc(n2)-c2coc(n2)-c2coc(n2)/C=C/C[C@H](OC)[C@H]1C)OC [KABIRAMIDE C]	–	–	pIC50 [3]: 8.00
CCC(=O)O[C@@H](C[C@H](OC)[C@@H](C)CC[C@@H](OC(=O)C1CCCCC1)[C@H](C)[C@H](OC)[C@H](C)/C=C/N(C)C=O)C(C)C	20%	65%	–
CO[C@@H]1C/C=C/c2nc(co2)-c2nc(co2)-c2nc(co2)[C@@H](C)CC(=O)CCC[C@@H](O)CC(=O)O[C@H](C[C@@H](OC)[C@@H](C)CCC(=O)[C@H](C)[C@H](OC(C)=O)[C@H](C)/C=C/N(C)C=O)[C@H]1C	–	–	pIC50 [3]: 8.00
CCC(=O)O[C@@H](C[C@H](OC)[C@@H](C)CC[C@@H](OC(=O)C(C)C)[C@H](C)[C@H](OC)[C@H](C)/C=C/N(C=O)CC)C(C)C	87%	85%	–
CCC(=O)O[C@@H](C[C@H](OC)[C@@H](C)CC[C@@H](OC(=O)C1CCCC1)[C@H](C)[C@H](OC)[C@H](C)/C=C/N(C)C=O)C(C)C	39%	53%	–
CCC(=O)O[C@@H](C[C@H](OC)[C@@H](C)CC[C@@H](OC(=O)C(C)C)[C@H](C)[C@H](OC)[C@H](C)/C=C/N(C)C=O)C(C)C	6%	21%	–
COC[C@@H](OC)C(=O)O[C@H](CC[C@H](C)[C@H](C[C@@H]1OC(=O)C[C@@H](O)C/C=C/C(=O)[C@H](C)[C@H](OC)c2coc(n2)-c2coc(n2)-c2coc(n2)/C=C/C[C@H](OC)[C@H]1C)OC)[C@H](C)[C@H](OC(C)=O)[C@H](C)/C=C/N(C)C=O	–	–	inhibition [4]: Active; Activity [5]: Active; Activity [6]: Active; pIC50 [7]: 9.30
CCCN(C=O)/C=C/[C@@H](C)[C@@H](OC)[C@@H](C)[C@@H](CC[C@H](C)[C@H](C[C@H](OC(=O)CC)C(C)C)OC)OC(=O)C(C)C	32%	40%	–
CC[C@@H](O)C[C@H](OC)[C@@H](C)CC[C@@H](OC(=O)C(C)C)[C@H](C)[C@H](OC)[C@H](C)/C=C/N(C)C=O	0%	30%	–
CCC(=O)O[C@@H](C[C@H](OC)[C@@H](C)CC[C@@H](OC(=O)[C@H]1CCCO1)[C@H](C)[C@H](OC)[C@H](C)/C=C/N(C)C=O)C(C)C	75%	72%	logP [8]: 5.3
CCC(=O)O[C@H](CC)C[C@H](OC)[C@@H](C)CC[C@H](OC(=O)CC)[C@H](C)[C@H](OC)[C@H](C)/C=C/N(C)C=O	17%	–	pIC50 [9]: 5.26
CCC(=O)O[C@@H](C[C@H](OC)[C@@H](C)CC[C@@H](OC(=O)C(C)C)[C@H](C)[C@H](OC)[C@H](C)/C=C/N1CCCCC1=O)C(C)C	14%	18%	–
CCC(=O)O[C@@H](C[C@H](OC)[C@@H](C)CC[C@@H](OC(=O)c1ccco1)[C@H](C)[C@H](OC)[C@H](C)/C=C/N(C)C=O)C(C)C	41%	43%	–
CO[C@@H]([C@@H](C)[C@@H](CC[C@H](C)[C@H](C[C@H](OC(=O)CCCN)C(C)C)OC)OC(=O)[C@H]1CCCO1)[C@H](C)/C=C/N(C)C=O	58%	53%	logP [8]: 4.18; inhibition [10]: Active
CCC(=O)O[C@@H](C[C@H](OC)[C@@H](C)CC[C@@H](OC(=O)[C@@H]1CCCO1)[C@H](C)[C@H](OC)[C@H](C)/C=C/N(C)C=O)C(C)C	67%	50%	–
CCC(=O)O[C@H](CC)C[C@H](OC)[C@@H](C)CC[C@@H](OC(=O)C(C)C)[C@H](C)[C@H](OC)[C@H](C)/C=C/N(C)C=O	33%	40%	–
CCC(=O)O[C@@H](C[C@H](OC)[C@@H](C)CC[C@@H](OC(=O)[C@H]1CCCO1)[C@H](C)[C@H](OC)[C@H](C)/C=C/N(C=O)CC)C(C)C	77%	63%	logP [8]: 5.67
CO[C@@H]1CC2=CC(=O)O[C@H](C2)[C@H](C)[C@H](OC)C[C@@H](OC)/C=C/[C@H](C)[C@@H](OC)C[C@@H](OC)/C=C/[C@H](C)[C@@H]([C@@H](C)[C@@H](OC)[C@@H](C)CCC(=O)[C@H](C)[C@@H](C/C=C/N(C)C=O)OC)OC(=O)/C=C/C=C(\C)C1	–	–	pIC50 [11]: 7.00
CCC(=O)O[C@@H](C[C@H](OC)[C@@H](C)CC[C@@H](OC(=O)C1CCC1)[C@H](C)[C@H](OC)[C@H](C)/C=C/N(C)C=O)C(C)C	52%	67%	–
CCC(=O)O[C@@H](C[C@H](OC)[C@@H](C)CC[C@@H](OC(=O)C(C)C)[C@H](C)[C@H](OC)[C@H](C)/C=C/N1CCC1=O)C(C)C	12%	30%	–
CCN(C=O)/C=C/[C@@H](C)[C@@H](OC)[C@@H](C)[C@@H](CC[C@H](C)[C@H](C[C@H](OC(=O)CCCN)C(C)C)OC)OC(=O)[C@H]1CCCO1	–	–	Activity [12]: Active; Activity [13]: Active; logP [8]: 4.55; inhibition [10]: Active
CCC(=O)O[C@@H](C[C@H](OC)[C@@H](C)CC[C@@H](OC(=O)C(C)C)[C@H](C)C(OC)[C@H](C)/C=C/N(C=O)C1CC1)C(C)C (single isomer, unassigned)	56%	77%	–
CCC(=O)O[C@@H](C[C@H](OC)[C@@H](C)CC[C@@H](OC(=O)C(C)C)[C@H](C)[C@H](OC)[C@H](C)/C=C/N(C)C=O)C1CCCCC1	45%	52%	–
CCC(=O)O[C@@H](C[C@H](OC)[C@@H](C)CC[C@@H](OC(=O)[C@H]1CCCN1C)[C@H](C)[C@H](OC)[C@H](C)/C=C/N(C)C=O)C(C)C	25%	45%	–
CCC(=O)O[C@H](CC)C[C@H](OC)[C@@H](C)CC[C@@H](OC(=O)CC)[C@H](C)[C@H](OC)[C@H](C)/C=C/N(C)C=O	42%	–	pIC50 [9]: 6.00
CO[C@@H](C[C@@H]1OC(=O)C[C@@H](O)C[C@H](O)C[C@H](O)[C@H](C)[C@@H](OC)c2coc(n2)-c2coc(n2)-c2coc(n2)/C=C/CC[C@H]1C)[C@@H](C)CCC(=O)[C@H](C)[C@@H](C/C=C/N(C)C=O)OC	–	–	pIC50 [3]: > 9.00
CCC(=O)O[C@@H](C[C@H](OC)[C@@H](C)CC[C@@H](OC(=O)C(C)C)[C@H](C)[C@H](OC)[C@H](C)/C=C/N(C=O)CC(F)(F)F)C(C)C	53%	81%	–
